Structures can show the parent of a compound that is named as a salt. Where two headings read alike, the source gives them in different places. One block for each compound: values may come before it.
Tests used:
[1] = test system: Trypanosoma brucei rhodesiense (T. b. r.); test: In vitro antiprotozoal activity against T. b. r.; format: cell-based
Experimental: (§1) In vitro antiprotozoal activities were measured following established protocols. See Ismail, M. A., et al., J. Med. Chem., 46, 4761-4769 (2003); Stephens, C. E., et al., Bioorg. Med. Chem. Lett., 13, 2065-2069 (2003) (in vitro assay against Leishmania donovani).
(§2) Testing methods are as described above in Example 17.

[2] = test system: Plasmodium falciparum (P. f.); test: In vitro antiprotozoal activity against P. f.; format: cell-based
Experimental: as §1, §2

L-6 rat mycoblast cells = test: cells
Experimental: as §1, §2

[3] = test system: STIB 900 strain of Trypanosoma brucei rhodesiense; test: T. b. r. STIB 900 mouse model; format: in vivo; conditions: for responders at 100 mg/kg / responders at 20 mg/kg: Trypanosoma brucei, 1440 h; for responders at 100 mg/kg: read-out: Cures; for responders at 20 mg/kg: read-out: Cures (converted)
Experimental: The activities of compounds 20, 18, 21, 48, 23c, 24c, 5, 4, and 10 against the STIB 900 strain of Trypanosoma brucei rhodesiense (T. b. r.) in a mouse model are shown in Table 3. […] Groups of four mice were infected intraperitoneally with 2×10^5 bloodstream forms of T. b. r. STIB 900 which originates from a patient in Tanzania. On days 3, 4, 5, and 6 post-infection the experimental groups were treated with the indicated compound, either by the intraperitoneal route, or for prodrugs, by the oral route. Usually the highest tolerated dose was used. The highest tolerated dose was determined in a pretoxicological experiment.
Parasitemia of the mice was checked daily up to day 14 post-infection and thereafter 2 times per week up to day 60. One group of mice was not treated and acted as control. Untreated control animals expire between day 7 and 8 post-infection. For relapsing mice, the day of death was recorded and the survival time determined. For the data shown in Table 3, cures reflect the number of mice that survive and are parasite free for 60 days. Survival reflects the average days of survival.
as §2

[4] = Trypanosoma brucei, RHODESIENSE, Table 1, k/K = thousand, read-out: T. b. r. IC50
[5] = Plasmodium falciparum, Table 1, k/K = thousand
[6] = Rattus norvegicus, L6, read-out: CT IC50
[7] = 100 mg/kg po, days 3-6 post-infection, average days of survival
[8] = 100 mg/kg po, days 3-6 post-infection, mice surviving parasite free for 60 days, groups of four
[9] = 20 mg/kg ip, days 3-6 post-infection, average days of survival
[10] = 20 mg/kg ip, days 3-6 post-infection, mice surviving parasite free for 60 days, groups of four
[11] = Table 1, k/K = thousand, read-out: T. b. r. IC50
[12] = read-out: CT IC50, Table 1, L-6 cells
[13] = Rattus norvegicus, L6, read-out: CT IC50, Table 1, L-6 cells
[14] = Table 2, K = thousand, read-out: T. b. r. IC50

SMILES: N=C(NO)c1ccc(-c2ccc(-c3ccc(C(=N)NO)o3)cc2)cc1 [Compound 3, N-Hydroxy-5-[4′-(N-hydroxyamidino)-biphenyl-4-yl]-furan-2-carboxamidine]
IC50 [1, 4]: 67 µM
IC50 [2, 5]: 6.6 µM
IC50 (L-6 rat mycoblast cells; [6]): 106 µM

SMILES: CONC(=N)c1ccc(-c2ccc(-c3ccc(C(=N)NOC)o3)cc2)cc1 [Compound 4, N-Methoxy-5-[4′-(N-methoxyamidino)-biphenyl-4-yl]-furan-2-carboxamidine]
IC50 [1, 4]: 24 µM
Survival [3, 7]: 29 days
responders at 100 mg/kg [3, 8]: 0%
IC50 [2, 5]: 1.6 µM
IC50 (L-6 rat mycoblast cells; [6]): > 206 µM

SMILES: CC(=O)O.N=C(N)c1ccc(-c2ccc(-c3ccc(C(=N)N)o3)cc2)cc1 [Compound 5, 5-(4′-Amidinobiphenyl-4-yl)-furan-2-carboxamidine acetate salt]
IC50 [1, 4]: 0.005 µM
Survival [3, 9]: 21.25 days
responders at 20 mg/kg [3, 10]: 0%
IC50 [2, 5]: 0.001 µM
IC50 (L-6 rat mycoblast cells; [6]): 2 µM

SMILES: NC(=NO)c1ccc(-c2ccc(-c3ccc(C(N)=NO)cc3)cc2)cc1 [Compound 18, [1,1′;4′,1″]Terphenyl-4,4″-bis-N-hydroxycarboxamidine]
IC50 [1, 11]: 22.8 µM
Survival [3, 7]: 24.75 days
Cures [3, 8]: 0/4
IC50 ([2]; Table 1, k/K = thousand): > 118 µM
IC50 (L-6 rat mycoblast cells; [12]): > 212 µM

SMILES: CON=C(N)c1ccc(-c2ccc(-c3ccc(C(N)=NOC)cc3)cc2)cc1 [Compound 21, [1,1′;4′,1″]Terphenyl-4,4″-bis-N-methoxycarboxamidine]
IC50 [1, 4]: 13.8 µM
Survival [3, 7]: 20.75 days
responders at 100 mg/kg [3, 8]: 0%
IC50 [2, 5]: 0.371 µM
IC50 (L-6 rat mycoblast cells; [6]): 118 µM

SMILES: CC(=O)O.N=C(N)c1ccc(-c2ccc(-c3ccc(C(=N)N)cc3)nc2)cc1 [Compound 23c, Phenyl[1,1′]pyridyl[4′,1″]phenyl-4,4″-bis-carboxamidine acetate salt]
IC50 [1, 11]: 0.002 µM
Survival [3, 9]: >60 days
Cures [3, 10]: 4/4
IC50 ([2]; Table 1, k/K = thousand): 0.01 µM
IC50 (L-6 rat mycoblast cells; [12]): 49.9 µM

SMILES: N=C(NO)c1ccc(-c2ccc(-c3ccc(C(=N)NO)cc3)nc2)cc1 [Compound 24c, Phenyl[1,1′]pyridyl[4′,1″]phenyl-4,4″-bis-N-hydroxycarboxamidine]
IC50 [1, 11]: 9.3 µM
Survival [3, 7]: >35.75 days
Cures [3, 8]: 1/4
IC50 ([2]; Table 1, k/K = thousand): 7.6 µM
IC50 (L-6 rat mycoblast cells; [12]): > 184 µM

SMILES: N=C(N)c1ccc(-c2cnc(-c3ccc(C(=N)N)cc3)nc2)cc1 [Compound 27, 2,5-Bis-(4′-amidinophenyl)-pyrimidine]
IC50 [2, 5]: 0.0005 µM
IC50 (L-6 rat mycoblast cells; [13]): 40.9 µM

SMILES: CON=C(N)c1ccc(-c2ccc(-c3ccc(C(N)=NOC)nc3)cc2)cn1 [Compound 33, 1,4-Bis-[5′-(N-methoxyamidinopyridin-2′-yl)]phenylene]
IC50 [1, 11]: 82.9 µM
IC50 ([2]; Table 1, k/K = thousand): 1.2 µM
IC50 (L-6 rat mycoblast cells; [12]): > 158 µM

SMILES: N=C(N)c1ccc(Cc2ccc(-c3ccc(C(=N)N)cc3)nc2)cc1 [Compound 36a, 2-(4′-Amidinophenyl)-5-(4″-amidinobenzyl)pyridine acetate salt]
IC50 [1, 11]: 0.041 µM
IC50 ([2]; Table 1, k/K = thousand): 0.011 µM
IC50 (L-6 rat mycoblast cells; [12]): 18.1 µM

SMILES: NC(=NO)c1ccc(-c2ccc(-c3ccc(C(N)=NO)cc3)c3ccccc23)cc1 [Compound 39, Phenyl[1,1′]naphthyl-[4′,1″]phenyl-4,4″-bis-N-hydroxycarboxamidine]
IC50 [1, 14]: 13.4 µM
IC50 ([2]; Table 2, K = thousand): 9.1 µM
IC50 (L-6 rat mycoblast cells): 9.4 µM

SMILES: CON=C(N)c1ccc(-c2ccc(-c3ccc(C(N)=NOC)cc3)c3ccccc23)cc1 [Compound 40, Phenyl[1,1′]naphthyl-[4′,1″]phenyl-4,4″-bis-N-methoxycarboxamidine]
IC50 [1, 14]: 29.5 µM
IC50 ([2]; Table 2, K = thousand): 3.9 µM
IC50 (L-6 rat mycoblast cells): 16.2 µM

SMILES: N=C(N)Nc1ccc(-c2ccc(-c3ccc(NC(=N)N)cn3)cc2)nc1 [Compound 55, 1,4-Bis-(5′-guanidinopyridin-2′-yl)phenylene hydrochloride salt]
IC50 [1, 4]: 0.169 µM
IC50 [2, 5]: 0.151 µM
IC50 (L-6 rat mycoblast cells; [13]): 152 µM

SMILES: CON=C(N)c1ccc(-c2ccc(-c3ccc(C(N)=NOC)nc3)cc2)cn1 [Compound 68, 1,4-Bis-[2′-(N-methoxyamidinopyridin-5′-yl)]-phenylene hydrochloride salt]
IC50 ([1]; Table 1, k/K = thousand, hydrochloride salt, read-out: T. b. r. IC50): 141 µM
IC50 ([1]; Table 4, read-out: T. b. IC50): 4.57 µM
IC50 ([2]; Table 1, k/K = thousand, hydrochloride salt): 5.5 µM
IC50 ([2]; Table 4): 0.637 µM
IC50 (L-6 rat mycoblast cells; read-out: CT IC50, Table 1, L-6 cells, hydrochloride salt): > 194 µM
IC50 (L-6 rat mycoblast cells; read-out: CT IC50, Table 4, L-6 cells): > 193 µM

SMILES: CN(C)CC(=O)ON=C(N)c1ccc(-c2ccc(-c3ccc(C(N)=NOC(=O)CN(C)C)nc3)cc2)cn1 [Compound 69, 1,4-Bis-{2′-[N-(N′,N′-dimethylaminoacetoxy)amidinopyridin-5′-yl]}-phenylene]
Cures ([3]; 25 mg/kg po, Table 5): 0/4
Survival ([3]; 25 mg/kg po, Table 5): 28.25 days

SMILES: N=C(N)c1ccc(OCCCCCOc2ccc(C(=N)N)cc2)cc1 [pentamidine, reference compound]
Survival [3, 9]: 42.7 days
responders at 20 mg/kg [3, 10]: 0%

Further lines, with some results ahead:

IC50 [1, 11]: > 201 µM
IC50 ([2]; Table 1, k/K = thousand): 0.925 µM
SMILES: NC(=NO)c1ccc(-c2ccc(-c3ccc(C(N)=NO)cc3)c(F)c2)cc1 [Compound 24a, 2′-Fluoro-[1,1′;4′,1″]terphenyl-4,4″-bis-N-hydroxycarboxamidine]
IC50 (L-6 rat mycoblast cells; [12]): 29.1 µM

IC50 [1, 11]: 29.9 µM
IC50 ([2]; Table 1, k/K = thousand): 3.1 µM
SMILES: NC(=NO)c1ccc(-c2ccc(-c3ccc(C(N)=NO)cc3)c(C(F)(F)F)c2)cc1 [Compound 24b, 2′-Trifluoromethyl-[1,1′;4′,1″]terphenyl-4,4″-bis-N-hydroxycarboxamidine]
IC50 (L-6 rat mycoblast cells; [12]): 13.3 µM

IC50 [1, 11]: > 51.5 µM
IC50 ([2]; Table 1, k/K = thousand): 4.2 µM
SMILES: CON=C(N)c1ccc(-c2ccc(-c3ccc(C(N)=NOC)cc3)c(F)c2)cc1 [Compound 25a, 2′Fluoro-[1,1′;4′,1″]terphenyl-4,4″-bis-methoxycarboxamidine]

IC50 [1, 11]: 36.9 µM
IC50 ([2]; Table 1, k/K = thousand): 3.8 µM
SMILES: CON=C(N)c1ccc(-c2ccc(-c3ccc(C(N)=NOC)cc3)c(C(F)(F)F)c2)cc1 [Compound 25b, 2′-Trifluoromethyl-[4′,1′;4′,1″]terphenyl-4,4″-bis-methoxycarboxamidine]
IC50 (L-6 rat mycoblast cells; [12]): 42.2 µM

IC50 [1, 11]: 34.7 µM
IC50 ([2]; Table 1, k/K = thousand): 3.2 µM
SMILES: CONC(=N)c1ccc(-c2ccc(-c3ccc(C(=N)NOC)cc3)nc2)cc1 [Compound 25c, Phenyl[1,1′]pyridyl[4′,1″]phenyl-4,4″-bis-N-methoxycarboxamidine]
IC50 (L-6 rat mycoblast cells; [12]): > 166 µM

IC50 [1, 11]: 142 µM
IC50 ([2]; Table 1, k/K = thousand): 1.7 µM
SMILES: CCOC(=O)N=C(N)Nc1ccc(-c2ccc(-c3ccc(NC(N)=NC(=O)OCC)cc3)cc2)cc1 [Compound 50a, 4,4″-Bis(N′-ethoxycarbonyl)-guanidino-[1,1′;4′,1″]terphenyl]
IC50 (L-6 rat mycoblast cells; [12]): > 181 µM

IC50 [1, 11]: 7.5 µM
IC50 ([2]; Table 1, k/K = thousand): 8.9 µM
SMILES: CCOC(=O)N=C(NC)Nc1ccc(-c2ccc(-c3ccc(NC(=NC(=O)OCC)NC)cc3)cc2)cc1 [Compound 50b, 4,4″-Bis(N′-ethoxycarbonyl-N″-methyl)-guanidino-[1,1′;4′,1″]terphenyl]
IC50 (L-6 rat mycoblast cells; [12]): 5.7 µM

IC50 [1, 11]: 14.2 µM
IC50 ([2]; Table 1, k/K = thousand): 4.5 µM
SMILES: CCOC(=O)N=C(Nc1ccc(-c2ccc(-c3ccc(NC(=NC(=O)OCC)NC(C)C)cc3)cc2)cc1)NC(C)C [Compound 50c, 4,4″-Bis(N′-ethoxycarbonyl-N″-isopropyl)-guanidino-[1,1′;4′,1″]terphenyl]
IC50 (L-6 rat mycoblast cells; [12]): 5.3 µM

IC50 [1, 11]: 0.018 µM
IC50 ([2]; Table 1, k/K = thousand): 0.007 µM
SMILES: CNC(=N)Nc1ccc(-c2ccc(-c3ccc(NC(=N)NC)cc3)cc2)cc1 [Compound 51a, 4,4″-Bis(N′-methyl)-guanidino-[1,1′;4′,1″]terphenyl]
IC50 (L-6 rat mycoblast cells; [12]): 65.1 µM

From patent US8188121B2, “Substituted pyridines as antiparasitic AZA teraryl compounds” (The University of North Carolina at Chapel Hill, priority 2005, dated 2012)
